For assay [1], the target named is Methyl-CpG-binding domain protein 4 (Homo sapiens) (UniProt O95243). The following applies: Compound Concentration 10.0 uM, Hit No.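 Further: MBD4 activity read as fluorescence at 594 nm from cleavage and release of a quenched duplex DNA oligonucleotide, with APE1 coupled to incise the strand and raise turnover.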
Description: Inhibition of MBD4 by quantifying inhibition of MBD4-mediated cleavage and dissociation of quenched duplex DNA oligonucleotides, measured as fluorescence at 594 nm. To generate a functional strand incision and increase turn-over this assay is coupled to APE1.
Assay [2] concerns the target DNA-3-methyladenine glycosylase (Homo sapiens) (UniProt P29372). Conditions: Compound Concentration 10.0 uM, Hit No.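 Further: enzyme assay where MPG cuts a quenched duplex DNA oligonucleotide probe, paired with APE1 for strand incision and turnover, read as fluorescence at 594 nm.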
Description: Inhibition of MPG by quantifying inhibition of MPG-mediated cleavage and dissociation of quenched duplex DNA oligonucleotides, measured as fluorescence at 594 nm. To generate a functional strand incision and increase turn-over this assay is coupled to APE1.
Assay [3] has as its target T1, Adenine DNA glycosylase (Homo sapiens) (UniProt Q9UIF7).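 Further: human MUTYH activity read as 594 nm fluorescence from cleavage and release of a quenched DNA duplex, coupled with APE1 for strand incision, lower signal meaning inhibition.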
T1 sequence (whole entry): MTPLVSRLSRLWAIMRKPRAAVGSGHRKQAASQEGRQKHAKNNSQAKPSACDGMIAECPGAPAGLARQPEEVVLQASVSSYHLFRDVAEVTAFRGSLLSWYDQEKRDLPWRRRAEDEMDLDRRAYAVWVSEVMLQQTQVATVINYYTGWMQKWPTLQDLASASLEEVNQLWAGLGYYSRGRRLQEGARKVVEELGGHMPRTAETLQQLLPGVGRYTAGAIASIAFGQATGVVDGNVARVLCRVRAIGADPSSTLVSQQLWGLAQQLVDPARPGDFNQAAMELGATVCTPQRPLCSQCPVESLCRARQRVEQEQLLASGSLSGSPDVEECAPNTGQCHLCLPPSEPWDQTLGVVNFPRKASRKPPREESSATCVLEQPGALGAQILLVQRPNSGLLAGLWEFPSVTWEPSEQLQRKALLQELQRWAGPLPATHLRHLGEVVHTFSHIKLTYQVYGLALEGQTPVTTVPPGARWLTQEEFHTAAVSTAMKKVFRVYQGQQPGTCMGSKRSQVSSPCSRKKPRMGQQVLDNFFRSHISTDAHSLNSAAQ
Conditions: Compound Concentration 10.0 uM, Hit No.
Description: Inhibition of MUTYH by quantifying inhibition of MUTYH-mediated cleavage and dissociation of quenched duplex DNA oligonucleotides, measured as fluorescence at 594 nm. To generate a functional strand incision and increase turn-over this assay is coupled to APE1.

For assay [4], the target named is Endonuclease 8-like 1 (Homo sapiens) (UniProt Q96FI4). The following applies: Compound Concentration 10.0 uM.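 Further: fluorescence at 594 nm from quenched duplex DNA oligonucleotides released by NEIL1 cleavage and strand separation, reported as reduction of this enzyme activity.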
Description: Inhibition of NEIL1 by quantifying inhibition of NEIL1-mediated cleavage and dissociation of quenched duplex DNA oligonucleotides, measured as fluorescence at 594 nm.
The target of assay [5] is T2, Endonuclease 8-like 2 (Homo sapiens) (UniProt Q969S2).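 Further: fluorescence at 594 nm reports NEIL2 cutting and release of a quenched double-stranded DNA oligo substrate, reduced signal read as inhibition.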
T2 sequence (whole entry): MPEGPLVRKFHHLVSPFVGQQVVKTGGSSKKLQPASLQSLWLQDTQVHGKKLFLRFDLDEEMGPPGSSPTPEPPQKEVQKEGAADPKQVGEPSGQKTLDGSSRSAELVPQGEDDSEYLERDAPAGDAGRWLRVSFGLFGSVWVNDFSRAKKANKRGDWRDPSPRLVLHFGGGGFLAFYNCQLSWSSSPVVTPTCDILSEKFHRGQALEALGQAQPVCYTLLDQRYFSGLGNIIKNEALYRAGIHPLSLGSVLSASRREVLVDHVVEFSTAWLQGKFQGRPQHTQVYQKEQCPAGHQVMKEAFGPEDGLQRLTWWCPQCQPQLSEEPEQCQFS
The following applies: Compound Concentration 10.0 uM.
Description: Inhibition of NEIL2 by quantifying inhibition of NEIL2-mediated cleavage and dissociation of quenched duplex DNA oligonucleotides, measured as fluorescence at 594 nm.

In assay [6] the target is T3, Endonuclease III-like protein 1 (Homo sapiens) (UniProt P78549).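 Further: enzyme assay tracking NTHL1 cutting and release of a quenched double-stranded DNA oligo substrate, read as fluorescence at 594 nm.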
T3 sequence (whole entry): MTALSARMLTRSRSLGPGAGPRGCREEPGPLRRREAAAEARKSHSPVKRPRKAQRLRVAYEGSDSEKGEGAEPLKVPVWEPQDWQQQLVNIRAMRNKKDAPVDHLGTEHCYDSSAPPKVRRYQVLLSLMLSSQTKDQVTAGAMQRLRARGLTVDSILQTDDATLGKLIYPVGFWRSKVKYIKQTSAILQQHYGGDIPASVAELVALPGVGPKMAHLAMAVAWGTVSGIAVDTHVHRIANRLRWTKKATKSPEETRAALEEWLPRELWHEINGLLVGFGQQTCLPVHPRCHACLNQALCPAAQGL
Conditions: Compound Concentration 10.0 uM.
Description: Inhibition of NTHL1 by quantifying inhibition of NTHL1-mediated cleavage and dissociation of quenched duplex DNA oligonucleotides, measured as fluorescence at 594 nm.

In assay [7] the target is N-glycosylase/DNA lyase (Homo sapiens) (UniProt O15527). The following applies: Compound Concentration 10.0 uM, Hit No.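 Further: OGG1 cleavage of a quenched duplex DNA oligonucleotide, coupled to APE1 for strand incision, read as fluorescence at 594 nm.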
Description: Inhibition of OGG1 by quantifying inhibition of OGG1-mediated cleavage and dissociation of quenched duplex DNA oligonucleotides, measured as fluorescence at 594 nm. To generate a functional strand incision and increase turn-over this assay is coupled to APE1.
Assay [8] concerns the target T4, Single-strand selective monofunctional uracil DNA glycosylase (Homo sapiens) (UniProt Q53HV7).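 Further: enzymatic SMUG1 assay coupled with APE1, reading fluorescence at 594 nm released when a quenched double-stranded DNA oligonucleotide substrate is cleaved and separated.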
T4 sequence (whole entry): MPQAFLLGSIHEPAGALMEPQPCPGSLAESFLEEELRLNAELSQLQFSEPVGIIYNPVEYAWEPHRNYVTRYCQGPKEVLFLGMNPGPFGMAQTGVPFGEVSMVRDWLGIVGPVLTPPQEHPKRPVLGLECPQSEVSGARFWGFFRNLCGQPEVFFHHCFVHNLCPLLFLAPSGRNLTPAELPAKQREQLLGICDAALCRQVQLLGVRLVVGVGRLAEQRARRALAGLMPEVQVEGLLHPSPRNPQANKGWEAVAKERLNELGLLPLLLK
Conditions: Compound Concentration 10.0 uM, Hit No.
Description: Inhibition of SMUG1 by quantifying inhibition of SMUG1-mediated cleavage and dissociation of quenched duplex DNA oligonucleotides, measured as fluorescence at 594 nm. To generate a functional strand incision and increase turn-over this assay is coupled to APE1.

The target in assay [9] is G/T mismatch-specific thymine DNA glycosylase (Homo sapiens) (UniProt Q13569). The following applies: Compound Concentration 10.0 uM, Hit No.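 Further: human TDG cleavage of quenched duplex DNA oligonucleotides coupled to APE1, strand release read as fluorescence at 594 nm, inhibition of TDG activity.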
Description: Inhibition of TDG by quantifying inhibition of TDG-mediated cleavage and dissociation of quenched duplex DNA oligonucleotides, measured as fluorescence at 594 nm. To generate a functional strand incision and increase turn-over this assay is coupled to APE1.
The target of assay [10] is Uracil-DNA glycosylase (Homo sapiens) (UniProt P13051). Conditions: Compound Concentration 10.0 uM, Hit No.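 Further: UNG excision on a quenched double-stranded DNA oligo probe, with APE1 added for strand incision and turnover, read as fluorescence at 594 nm as strands separate.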
Chain of Uracil-DNA glycosylase (Homo sapiens) (P13051 whole entry): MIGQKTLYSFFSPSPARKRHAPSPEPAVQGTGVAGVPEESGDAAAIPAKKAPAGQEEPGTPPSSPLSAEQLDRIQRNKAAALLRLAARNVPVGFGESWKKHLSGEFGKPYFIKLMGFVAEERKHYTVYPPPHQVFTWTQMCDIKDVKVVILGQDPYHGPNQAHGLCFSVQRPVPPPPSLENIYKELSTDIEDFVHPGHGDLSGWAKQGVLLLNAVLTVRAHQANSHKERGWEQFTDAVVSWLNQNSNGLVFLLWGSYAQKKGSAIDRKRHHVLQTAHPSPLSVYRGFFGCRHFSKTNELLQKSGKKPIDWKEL
Description: Inhibition of UNG by quantifying inhibition of UNG-mediated cleavage and dissociation of quenched duplex DNA oligonucleotides, measured as fluorescence at 594 nm. To generate a functional strand incision and increase turn-over this assay is coupled to APE1.

Chain of Endonuclease 8-like 1 (Homo sapiens) (Q96FI4 whole entry): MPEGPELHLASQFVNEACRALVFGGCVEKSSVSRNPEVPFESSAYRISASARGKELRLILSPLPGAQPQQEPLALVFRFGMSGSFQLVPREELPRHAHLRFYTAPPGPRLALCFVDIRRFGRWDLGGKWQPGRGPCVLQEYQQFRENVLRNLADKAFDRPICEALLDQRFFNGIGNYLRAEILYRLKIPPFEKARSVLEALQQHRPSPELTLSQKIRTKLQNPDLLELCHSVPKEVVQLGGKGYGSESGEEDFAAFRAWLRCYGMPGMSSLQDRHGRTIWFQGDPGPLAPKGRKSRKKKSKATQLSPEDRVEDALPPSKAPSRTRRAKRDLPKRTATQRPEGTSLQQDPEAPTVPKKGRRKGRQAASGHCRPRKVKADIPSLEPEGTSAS
Chain of G/T mismatch-specific thymine DNA glycosylase (Homo sapiens) (Q13569 whole entry): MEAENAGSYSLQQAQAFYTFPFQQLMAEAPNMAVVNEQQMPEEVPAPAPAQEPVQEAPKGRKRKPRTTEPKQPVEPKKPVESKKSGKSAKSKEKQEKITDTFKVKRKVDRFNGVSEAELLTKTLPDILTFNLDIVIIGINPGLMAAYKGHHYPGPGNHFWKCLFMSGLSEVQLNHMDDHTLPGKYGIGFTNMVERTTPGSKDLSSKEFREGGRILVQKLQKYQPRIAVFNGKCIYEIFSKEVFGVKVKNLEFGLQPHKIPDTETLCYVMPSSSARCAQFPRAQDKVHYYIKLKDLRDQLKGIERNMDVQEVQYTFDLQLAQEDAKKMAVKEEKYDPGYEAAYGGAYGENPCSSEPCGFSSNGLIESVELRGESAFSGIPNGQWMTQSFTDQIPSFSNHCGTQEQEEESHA
Chain of N-glycosylase/DNA lyase (Homo sapiens) (O15527 whole entry): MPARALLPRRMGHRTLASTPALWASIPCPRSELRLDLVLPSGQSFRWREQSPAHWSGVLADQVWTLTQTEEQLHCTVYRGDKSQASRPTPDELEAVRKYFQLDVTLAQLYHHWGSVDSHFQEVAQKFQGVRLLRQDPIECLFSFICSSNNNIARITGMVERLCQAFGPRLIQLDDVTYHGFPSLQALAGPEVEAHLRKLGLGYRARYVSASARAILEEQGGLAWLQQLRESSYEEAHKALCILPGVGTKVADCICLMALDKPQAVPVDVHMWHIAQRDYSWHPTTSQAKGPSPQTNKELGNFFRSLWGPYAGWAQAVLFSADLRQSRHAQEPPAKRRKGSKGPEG
Chain of Methyl-CpG-binding domain protein 4 (Homo sapiens) (O95243 whole entry, the tested form may be a part): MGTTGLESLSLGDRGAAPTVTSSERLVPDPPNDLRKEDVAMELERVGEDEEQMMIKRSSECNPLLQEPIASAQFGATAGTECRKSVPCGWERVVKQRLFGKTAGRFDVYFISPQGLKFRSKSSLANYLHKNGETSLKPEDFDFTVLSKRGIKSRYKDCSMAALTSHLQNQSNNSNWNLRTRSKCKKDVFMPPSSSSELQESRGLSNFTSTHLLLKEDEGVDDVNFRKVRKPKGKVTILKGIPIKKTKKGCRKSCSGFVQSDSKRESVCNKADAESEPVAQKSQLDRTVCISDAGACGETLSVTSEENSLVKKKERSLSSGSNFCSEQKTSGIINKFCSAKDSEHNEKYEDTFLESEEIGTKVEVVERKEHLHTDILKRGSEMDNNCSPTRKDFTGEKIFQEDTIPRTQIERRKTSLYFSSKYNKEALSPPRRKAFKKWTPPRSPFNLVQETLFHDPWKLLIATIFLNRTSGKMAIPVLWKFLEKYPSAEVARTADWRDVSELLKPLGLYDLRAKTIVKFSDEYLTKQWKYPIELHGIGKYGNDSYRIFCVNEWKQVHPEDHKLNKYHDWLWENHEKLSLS
Chain of DNA-3-methyladenine glycosylase (Homo sapiens) (P29372 whole entry): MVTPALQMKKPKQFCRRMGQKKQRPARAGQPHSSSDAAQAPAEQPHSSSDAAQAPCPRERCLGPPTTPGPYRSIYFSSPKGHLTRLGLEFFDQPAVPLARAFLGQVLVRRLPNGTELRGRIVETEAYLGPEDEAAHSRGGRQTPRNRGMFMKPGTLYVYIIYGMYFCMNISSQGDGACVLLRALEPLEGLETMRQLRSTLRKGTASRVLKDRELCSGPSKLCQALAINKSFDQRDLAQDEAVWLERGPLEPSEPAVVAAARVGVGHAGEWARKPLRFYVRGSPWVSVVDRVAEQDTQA

Turning to `CCn1cnc2c(-c3ccc(F)c(-c4ccc(S(=O)(=O)CC)cc4OC)c3)cnnc21`, the inhibition in assay [1] was determined as 19.2%; in assay [2], 7.34%; in assay [3], 16.3%; in assay [4] (Hit No), 6.83%; in assay [5] (Hit No), 12.9%; in [6] (Hit No) it was 13.8%. Further, the inhibition in assay [7] was -5.04%; in [8], 1.23%; in [9], 22.3%; in assay [10], 6.05%.

`CCCN(CCC)CCc1cccc2c1CC(=O)N2`: the inhibition was 2.3% in assay [1]; -1.21% in assay [2]; 10.1% in assay [3]; 7.51% in assay [4] (Hit No); 1.01% in assay [5] (Hit No); -4.67% in assay [6] (Hit No). Besides, the inhibition in assay [7] is -5.66%; in assay [8] it was -5.12%; in [9] it was 8.55%; in [10], -9.36%.

In the case of `NCCc1c[nH]c2ccc(C(N)=O)cc12`, the inhibition in [1] is -4.67%; in [2], -1.86%; in assay [3], 4.88%; in assay [4] (Hit No), 7.95%; in assay [5] (Hit No), -5.97%; in assay [6] (Hit No) it was -7.6%. Moreover, the inhibition in assay [7] is -3.21%; in [8] it was 0.209%; in assay [9], 8.45%; in assay [10], -6.78%.

Turning to `COc1cc(NC(=O)c2ccc(-c3ccc(Cl)cc3)o2)cc(OC)c1`, the inhibition is 21.1% in assay [1]; 18% in [2]; -0.703% in [3]; 6.97% in [4] (Hit No); -9.78% in [5] (Hit No); 8.82% in assay [6] (Hit No). Moreover, the inhibition was determined as 3.08% in assay [7], 15.3% in assay [8], 9.84% in [9] and 3.14% in [10].

In the case of `CSc1ccc(C(=O)/C=C/c2cc(C)c(OC(C)(C)C(=O)O)c(C)c2)cc1`, the inhibition is 77.3% in [1]; -8.02% in [2]; 16.2% in [3]; 0.467% in assay [4] (Hit No); 2.06% in [5] (Hit No); 2% in assay [6] (Hit No). Moreover, the inhibition in [7] was 18.2%; in [8] it was 7.83%; in assay [9] it was 99.6%; in [10], -1.57%.

For the compound `COc1ccccc1C(=O)Nc1cccc(NC(=O)c2cccc(C)c2)c1`, the inhibition in [1] was 14.3%; in assay [2], 18.5%; in assay [3] it was 8.28%; in assay [4] (Hit No), -5.33%; in assay [5] (Hit No), -3.15%; in assay [6] (Hit No), 15.4%. Also, the inhibition was -2.96% in assay [7], -5.33% in assay [8], 19.8% in assay [9] and -7.92% in [10].

Turning to `Cc1ccc2nc(NCCN)c3ncc(C)n3c2c1`, the inhibition in assay [1] is 53%; in [2] it was 75.9%; in [3], 83.5%; in assay [4] (Hit Yes) it was 28.9%; in [5] (Hit Yes), 47.1%; in assay [6] (Hit Yes) it was 43.3%. Further, the inhibition in assay [7] amounted to 47.4%; in [8], 44.2%; in assay [9], 67.6%; in assay [10], 14.9%.

Consider `Nc1nc2c(c(N3CCNCC3)n1)CCC1=C2[C@@H]2CCCC[C@@H]2O1`, for which the inhibition in assay [1] is 0.963%; in assay [2], -2.48%; in assay [3] it was 3.48%; in [4] (Hit No), -3.91%; in [5] (Hit No), 4.51%; in assay [6] (Hit No) it was 7.79%. The inhibition was -5.22% in assay [7], 13.7% in assay [8], 6.18% in assay [9] and -2.85% in assay [10].

Turning to `O=C1C[C@@H]2OCC=C3CN4CC[C@]56c7ccccc7N1[C@H]5[C@H]2[C@H]3C[C@H]46`, the inhibition in assay [1] was 11.5%; in assay [2], -1.64%; in [3] it was 38.1%; in assay [4] (Hit No), 0.602%; in assay [5] (Hit No) it was -1.88%; in assay [6] (Hit No), 10.5%. The inhibition in [7] is -7.16%; in assay [8], -0.692%; in assay [9], 11.6%; in [10] it was -3.11%.

`CCCn1c(=O)c2nc(C34CC5CC(CC3C5)C4)[nH]c2n(CCC)c1=O`: the inhibition in assay [1] was 16.5%; in assay [2] it was -7.5%; in assay [3], 6.8%; in assay [4] (Hit No), 5.88%; in assay [5] (Hit No) it was 12.2%; in assay [6] (Hit No), -8.34%. For the same compound, the inhibition in [7] is -1.3%; in [8] it was 5%; in assay [9], 14.1%; in assay [10], -9.84%.

As to `Nc1ncnc2c1ncn2[C@@H]1O[C@H](COP(=O)(O)OP(=O)(O)O)[C@@H](O)[C@H]1O`, the inhibition was 10.8% in assay [1]; -6.47% in [2]; 18.3% in assay [3]; 8.75% in [4] (Hit No); 1.69% in assay [5] (Hit No); 11.3% in assay [6] (Hit No). Also, the inhibition in [7] was -9.66%; in assay [8], -0.127%; in assay [9], 26.4%; in [10], -1.19%.

With `Clc1ccccc1C(c1ccccc1)(c1ccccc1)n1cccn1`, the inhibition in assay [1] is 5.21%; in assay [2], -4.99%; in [3], 23.9%; in assay [4] (Hit No), 5.94%; in assay [5] (Hit No), -6.46%; in assay [6] (Hit No), 15.4%. Moreover, the inhibition in assay [7] was -9.77%; in [8] it was -6.62%; in [9], 10.7%; in [10], -9.12%.

For the compound `CC(/C=C1\SC(=S)N(CCCC(=O)Nc2ccc(C(=O)O)c(O)c2)C1=O)=C\c1ccccc1`, the inhibition in [1] was determined as 64%; in assay [2], 34.2%; in assay [3], 46.5%; in assay [4] (Hit No), 11.6%; in [5] (Hit No) it was 13.7%; in assay [6] (Hit No), 0.0916%. For the same compound, the inhibition in [7] was 25.4%; in [8] it was -1.92%; in assay [9], 53%; in assay [10] it was -7.24%.

On to `O=c1cccc2n1C[C@@H]1CNC[C@H]2C1`, for which the inhibition in assay [1] was 10.5%; in assay [2] it was -3.1%; in assay [3], 43.9%; in assay [4] (Hit No) it was -1.18%; in [5] (Hit No), -3.15%; in assay [6] (Hit No), -4.39%. The inhibition was -5.41% in [7], -3.8% in assay [8], -5.51% in assay [9] and -3.14% in assay [10].

On to `CC1(C)CN2C(CS/C(=N\C3CCCCC3)NC3CCCCC3)=CSC2=N1`, for which the inhibition in assay [1] was 7.88%; in assay [2], 8.86%; in assay [3], 4.05%; in assay [4] (Hit No), 6.38%; in assay [5] (Hit No) it was -0.86%; in assay [6] (Hit No) it was 11.3%. The inhibition in [7] is 5.96%; in assay [8], -4.87%; in [9], -0.781%; in assay [10], -3.07%.

One may read the inhibition as the relative decrease from the control value, in per cent.

For the origin of these results see ChEMBL document CHEMBL5665443, “Enzyme Inhibitor Single Concentration assay results for EUbOPEN Chemogenomics Library” (2024).
